Assay results as given in patent publication US20120010075A1 (priority 2009, published 2012).
Like-named read-outs stand apart in the source and are kept apart here.

Columns and labels:
[1] = tested on: Leptosphaeria nodorum (LEPTNO); assay: In vitro fungitoxicity of hydrazones with and without copper towards Leptosphaeria nodorum (Example 26); format: cell-based; conditions: 72 h at 25° C.; for inhibition of growth at 0.05 µg/mL: Parastagonospora nodorum, 72 h, copper-minus medium, read-out: LEPTNO % Inhn. Minus Copper Observed
[2] = tested on: Phytophthora infestans; format: in vivo, Phytophthora infestans on tomato; conditions: applied 24 h before inoculation, assessed 7 days after inoculation
[3] = test compound Concn. 0.05 μg/mL
[4] = copper-plus medium (CuCl2 10 μM), test compound Concn. 0.05 μg/mL
[5] = hydrazone 50 ppm with 50 μM CuCl2.2H2O, tomato late blight
[6] = compound 0.05 μg/mL, copper-plus medium (CuCl2.2H2O)
[7] = hydrazone 50 ppm + 50 μM CuCl2.2H2O, tomato

Row | SMILES | inhibition of growth at 0.05 µg/mL [1, 3] [%] | LEPTNO % Inhn. Plus Copper Observed [1, 4] [%] | melting point [°C] | TLB % Control [2, 5] [%] | inhibition of growth at 0.05 µg/mL ([1]; compound 0.05 μg/mL) [%] | LEPTNO % Inhn. Plus Copper Observed [1, 6] [%] | TLB % Control [2, 7] [%]
1 | O=C(N/N=C/c1cccc(C(F)(F)F)c1O)c1cccc([N+](=O)[O-])c1 [Example 349] | 17.4 | 96.9 | 215 to 217 | 97.0 | – | – | –
2 | O=C(N/N=C/c1cccc(Cl)c1O)c1ccc([N+](=O)[O-])cc1 [Example 430] | 16.6 | 98.2 | 284 to 287 | 100.0 | – | – | –
3 | Cc1ccc(/C=N/NC(=O)c2ccccc2)c(O)c1 [Example 234] | – | – | 179 to 182 | – | 0 | 94.3 | 72.9
4 | C/C(=N\NC(=O)c1ccccc1Cl)c1cc(Br)ccc1O [Example 291] | – | – | 198 to 201 | – | 2.2 | 95.4 | 67.0
5 | COc1cc(O)c(/C(C)=N/NC(=O)c2ccccc2O)c(OC)c1 [Example 586] | 0 | 87.3 | 182 to 199 | 31.0 | – | – | –
6 | O=C(N/N=C/c1ccc(Cl)cc1O)c1ccc(F)cc1 [Example 390] | 4.2 | 97.5 | 226 to 228 | 95.0 | – | – | –
7 | O=C(N/N=C/c1ccc(Cl)cc1O)c1ccccc1C(F)(F)F [Example 396] | 0 | 95.5 | 197 to 200 | 49.0 | – | – | –
8 | O=C(N/N=C/c1c(O)cccc1Cl)c1ccc(F)cc1 [Example 401] | 0 | 94.8 | 266 to 268 | 98.0 | – | – | –
9 | C/C(=N\NC(=O)Cc1ccc(F)cc1)c1cc(Cl)cc(Cl)c1O [Example 17] | – | – | 209 to 213 | – | 9.4 | 95.9 | 69.0
10 | O=C(N/N=C/c1cc(Cl)cc(Cl)c1O)c1cc2ccccc2cc1O [Example 563] | 20.6 | 96.9 | 287 to 292 | 70.0 | – | – | –
11 | COc1ccc(/C(C)=N/NC(=O)c2ccccc2)c(O)c1 [Example 280] | – | – | 211 to 213 | – | 2.2 | 98.2 | 88.0
12 | Cc1cccc(C(=O)N/N=C/c2cc(Cl)cc(Cl)c2O)c1O [Example 73] | – | – | 202 to 209 | – | 8.6 | 98.0 | 87.3
13 | C/C(=N\NC(=O)c1ccccc1C)c1cccc([N+](=O)[O-])c1O [Example 269] | – | – | 193 to 196 | – | 0 | 98.8 | 21.0
14 | COc1ccc(/C(C)=N/NC(=O)c2ccccc2Cl)c(O)c1OC [Example 555] | 3.7 | 92.5 | 77 to 86 | 46.0 | – | – | –
15 | O=C(N/N=C/c1cc(Cl)ccc1O)c1cc(Cl)ccc1Cl [Example 189] | – | – | 185 to 188 | – | 19.2 | 95.9 | 72.7
16 | COc1cccc(/C(C)=N/NC(=O)c2ccc(C(F)(F)F)cc2)c1O [Example 466] | 2.7 | 97.9 | 175 to 176 | 69.0 | – | – | –
17 | O=C(N/N=C/c1cc(Cl)cc(Cl)c1O)c1cc(Cl)ccc1O [Example 475] | 33.8 | 97.1 | 287 to 292 | 100.0 | – | – | –

Row | SMILES | inhibition of growth at 0.05 µg/mL [1, 3] [%] | LEPTNO % Inhn. Plus Copper Observed [1, 4] [%] | melting point [°C] | TLB % Control [2, 5] [%] | inhibition of growth at 0.05 µg/mL ([1]; compound 0.05 μg/mL) [%] | LEPTNO % Inhn. Plus Copper Observed [1, 6] [%] | TLB % Control [2, 7] [%]
18 | Cc1ccc(C(=O)N/N=C/c2cccc(C(F)(F)F)c2O)cc1 [Example 344] | 31.5 | 91.8 | 239 to 241 | 100.0 | – | – | –
19 | N#Cc1cc(F)c(O)c(/C=N/NC(=O)c2ccccc2)c1 [Example 307] | 0 | 91.3 | 262 to 263 | 25.0 | – | – | –
20 | O=C(N/N=C/c1c(O)cc(C(F)(F)F)cc1C(F)(F)F)c1ccccc1 [Example 276] | – | – | 144 to 193 | – | 5.5 | 97.8 | 71.2
21 | COc1ccc(O)c(/C(C)=N/NC(=O)c2ccc(C)cc2)c1 [Example 264] | – | – | 159 to 162 | – | 6 | 98.4 | 21.0
22 | COc1ccc(C(=O)N/N=C(\C)c2cccc([N+](=O)[O-])c2O)cc1 [Example 521] | 5 | 95.9 | 204 to 212 | 83.0 | – | – | –
23 | C/C(=N\NC(=O)c1ccccc1Cl)c1cc(C)ccc1O [Example 315] | 2.7 | 95.8 | 154 to 158 | 18.0 | – | – | –
24 | O=C(N/N=C/c1cc(Cl)cc(C(F)(F)F)c1O)c1ccc(F)cc1 [Example 379] | 26.7 | 98.2 | 227 to 228 | 100.0 | – | – | –
25 | COc1ccc(/C(C)=N/NC(=O)c2ccccc2O)c(O)c1OC [Example 562] | 1.4 | 97.3 | 279 to 297 | 91.0 | – | – | –
26 | O=C(N/N=C/c1ccc(Cl)c(Cl)c1O)c1ccc(F)cc1 [Example 357] | 56.7 | 97.4 | 244 to 246 | 93.0 | – | – | –
27 | Cc1ccc(C(=O)N/N=C/c2cc(Cl)cc(Br)c2O)cc1 [Example 413] | 18.9 | 97.9 | 279 to 282 | 94.0 | – | – | –
28 | O=C(N/N=C/c1cc(Cl)ccc1O)c1ccc([N+](=O)[O-])cc1 [Example 12] | – | – | 259 to 262 | – | 0.5 | 97.4 | 94.0
29 | O=C(N/N=C/c1cc(C(F)(F)F)cc(C(F)(F)F)c1O)c1cccc(F)c1 [Example 334] | 10.9 | 97.8 | 240 to 242 | 98.0 | – | – | –
30 | CCc1ccc(C(=O)N/N=C/c2cc(Cl)cc(Cl)c2O)cc1 [Example 260] | – | – | 286 to 289 | – | 11.2 | 97.1 | 81.0
31 | COc1ccc(/C(C)=N/NC(=O)c2ccc(Cl)cc2)c(O)c1 [Example 286] | – | – | 227 to 229 | – | 2.3 | 98.4 | 75.0
32 | O=C(N/N=C/c1cc(C(F)(F)F)cc(Cl)c1O)c1ccc([N+](=O)[O-])cc1 [Example 328] | 0 | 95.1 | 253 to 255 | 99.0 | – | – | –
33 | O=C(N/N=C/c1cc(C(F)(F)F)cc(Cl)c1O)c1cccc([N+](=O)[O-])c1 [Example 327] | 1.2 | 95.7 | 237 to 238 | 98.0 | – | – | –
